Laboratory results published in patent EP1518554A1, “Pharmaceutical composition for the treatment of hyperhomocysteinemia” (Medosan Industrie Biochimiche Riunite S.r.l., priority 2003, dated 2005).

Tested on: homocysteine ematic level
Assay: Randomised clinical study in patients with hyperhomocysteinemia; plasma homocysteine determined by immunoenzymatic test (EIA) at enrolment and after 30 days of treatment
Format: in vivo
Text: Assessments about the pharmacological effectiveness of the composition according to the present invention have been carried out according to the following study protocol.
The experimentation has examined a total number of 60 patients assigned to one of the two treatment groups (30 patients to group A and 30 patients to group B).
• Patients of both sexes • Age older than 18 • Homocysteinemia level >15 µmol/l
• Patients suffering from diseases interfering with the homocysteine dosage • Patients in therapy with drugs interfering with the homocysteine metabolism (isoniazid, antiepileptic, methotrexate) • Subjects with ascertained individual hypersensitivity towards the active principles and/of the excipients of the product • Women during pregnancy or puerperium • Patients suffering from diabetes mellitus […]
The obtained data have been assessed statistically withe Student's t test and the significance is expressed as follows: P<0.05*; P<0.01**; P<0.001***

Q: arginine glutamate was tested. Which “reduction in the homocysteine plasmatic levels” value (general statement of the applicant's experimental data, dose and duration not stated at the place) did it give?
A: 10-15%

Q: What about the “reduction in the homocysteine plasmatic values” (patients with homocysteinemia >15 µmol/l, 10-ml small bottle which can be drunk, twice a day for 30 days, 30 patients per group, Student's t test (composition 9 p≤0.001; arginine glutamate only p≤0.01)) of the same substance?
A: 12%
